In publication PMC7468108 (Communications Biology, 2020):

Key:
[1] = tested on: SH-SY5Y cells exposed to pre-formed Aβ42 fibrils; test: XTT assay, reduction of Aβ42-induced cytotoxicity in SH-SY5Y; type: cell-based, human; parameters: %Viability: dose or concentration left out as unconfirmed
Method: (§1) The peptide assemblies were then incubated for further 24 h with SH-SY5Y or HEK-293 cells and cell viability was monitored by XTT assay (Fig. 9). […] The mixtures were then independently applied to the respective cells for 24 h, and cell viability was further measured by XTT assay (Fig. 10a).
(§2) The SH-SY5Y and HEK-293 cell lines (2 × 10^5 cells/mL) were cultured in 96-well tissue microplates (100 µL/well) and allowed to adhere overnight at 37 °C. The conjugate molecules were dissolved in DMEM:nutrient mixture F12 (Ham’s) (1:1) (Biological Industries, Israel) at different concentrations. The negative control was prepared as medium without hybrid molecules and treated in the same manner. 100 µL of medium with or without hybrid molecules were added to each well in triplicate. Following incubation for 24 h at 37 °C, cell viability was evaluated using the 2,3-bis(2-methoxy-4-nitro-5-sulfophenyl)-2H-tetrazolium-5-carboxanilide (XTT) cell proliferation assay kit (Biological Industries, Israel) according to the manufacturer’s instructions. Briefly, 100 µL of activation reagent was added to 5 mL of XTT reagent, followed by the addition of 50 µL of activated-XTT solution to each well. After 2 h incubation at 37 °C, color intensity was measured using an ELISA microplate reader at 450 nm and 630 nm. Results are presented as mean and mean standard error. Each experiment was repeated minimum three times.
(§3) For the quantitative data derived from ThT and XTT assays, statistical significance, expressed as p-value, was determined using Student’s t-test calculation applied at the end of the experiments, setting tails to 2 (tailed distribution) and type to 2 (samples equal variance), according to reported methods. From the XTT viability assays, EC50 and Emax values were determined from the dose-response curves of each tested molecule using non-linear least-square data fitting, according to literature.

Aβ42 = target: T1, Aβ42 (Homo sapiens, UniProt P05067); test: ThT-binding assay, inhibition of Aβ42 aggregation; type: biochemical; details: for % amyloid of Aβ42: Aβ42 10 µM; for Normalized ThT fluorescence: Aβ42:compound 1:5
T1 construct: purchased rPeptide (USA)
T1 sequence (P05067 672-713 limits assumed): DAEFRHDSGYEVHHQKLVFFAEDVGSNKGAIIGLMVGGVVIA
Method: ThT is known to intercalate within the amyloid fibrils resulting in fluorescence emission proportionate to the amyloid growth.
The resulting thin films were dissolved in PBS (100 mM, pH 7.4) and sonicated for 5 min to get a stock concentration of 50 µM, which immediately diluted to required concentration for an experiment. Stock solutions of ThT (4 mM in PBS) and hybrid molecules (10 mM in PBS) were prepared. All the stock solutions were diluted according to the requirement.
The experiment was performed according to the previous report. […] […] Excitation and emission wavelengths were set at 440 nm and 485 nm, respectively.

[2] = tested on: HEK-293 cells exposed to pre-formed hIAPP fibrils; test: XTT assay, reduction of hIAPP-induced cytotoxicity in HEK-293; type: cell-based; details: Homo sapiens
Method: as §1, §2, §3

SMILES: NC(Cc1c[nH]c2ccccc12)C(=O)NC(Cc1c[nH]c2ccccc12)C(=O)O (stereo not shown) [WW]
- %Viability ([1]; Aβ42 […] µM : compound 1:1): 54.466%
- %Viability ([1]; Aβ42 […] µM : compound 1:5): 57.303%
- %Viability ([1]; Aβ42 […] µM : compound 1:10): 57.999%
- %Viability ([1]; Aβ42 […] µM : compound 1:20): 59.030%
- %Viability ([1]; Aβ42 […] µM : compound 5:1): 52.403%
- %Viability ([1]; Aβ42 […] µM : compound 10:1): 48.896%
- %Viability ([1]; Aβ42 […] µM : compound 20:1): 51.423%
- %Viability ([1]; Aβ42 […] µM : compound 50:1): 50.031%
- EC50 ([1]; Homo sapiens, read-out: Aβ42 EC50): 13 µM
- inhibition of Aβ42 fibril formation (ThT), in words (Aβ42; any molar ratio (5:1, 1:1, 1:5)): no inhibition effect
- % amyloid of Aβ42 (Aβ42; molar ratio Aβ42:tested molecule 1:1): 98.904%
- % amyloid of Aβ42 (Aβ42; molar ratio Aβ42:tested molecule 1:5): 105.519%
- % amyloid of Aβ42 (Aβ42; molar ratio Aβ42:tested molecule 5:1): 93.190%
- Normalized ThT fluorescence (Aβ42; time 0.000 h): 100.247
- Normalized ThT fluorescence (Aβ42; time 0.167 h): 60.188
- Normalized ThT fluorescence (Aβ42; time 0.333 h): 57.612
- Normalized ThT fluorescence (Aβ42; time 0.500 h): 73.246
- Normalized ThT fluorescence (Aβ42; time 0.667 h): 91.915
- Normalized ThT fluorescence (Aβ42; time 0.833 h): 133.372
- Normalized ThT fluorescence (Aβ42; time 1.000 h): 185.130
- Normalized ThT fluorescence (Aβ42; time 1.167 h): 238.325
- Normalized ThT fluorescence (Aβ42; time 1.333 h): 306.731
- Normalized ThT fluorescence (Aβ42; time 1.500 h): 377.171
- Normalized ThT fluorescence (Aβ42; time 1.667 h): 441.860
- Normalized ThT fluorescence (Aβ42; time 1.833 h): 512.406
- Normalized ThT fluorescence (Aβ42; time 2.000 h): 563.139
- Normalized ThT fluorescence (Aβ42; time 2.167 h): 622.335
- Normalized ThT fluorescence (Aβ42; time 2.333 h): 703.467
- Normalized ThT fluorescence (Aβ42; time 2.500 h): 748.995
- Normalized ThT fluorescence (Aβ42; time 2.667 h): 831.052
- Normalized ThT fluorescence (Aβ42; time 2.833 h): 768.926
- Normalized ThT fluorescence (Aβ42; time 3.000 h): 842.887
- Normalized ThT fluorescence (Aβ42; time 3.167 h): 889.978
- Normalized ThT fluorescence (Aβ42; time 3.333 h): 935.606
- Normalized ThT fluorescence (Aβ42; time 3.500 h): 870.330
- Normalized ThT fluorescence (Aβ42; time 3.667 h): 968.307
- Normalized ThT fluorescence (Aβ42; time 3.833 h): 972.259
- Normalized ThT fluorescence (Aβ42; time 4.000 h): 873.484
- Normalized ThT fluorescence (Aβ42; time 4.167 h): 934.106
- Normalized ThT fluorescence (Aβ42; time 4.333 h): 1006.391
- Normalized ThT fluorescence (Aβ42; time 4.500 h): 929.674
- Normalized ThT fluorescence (Aβ42; time 4.667 h): 937.654
- Normalized ThT fluorescence (Aβ42; time 4.833 h): 1043.183
- Normalized ThT fluorescence (Aβ42; time 5.000 h): 1070.273
- Normalized ThT fluorescence (Aβ42; time 5.167 h): 1001.135
- Normalized ThT fluorescence (Aβ42; time 5.333 h): 988.346
- Normalized ThT fluorescence (Aβ42; time 5.500 h): 1039.570
- Normalized ThT fluorescence (Aβ42; time 5.667 h): 1028.736
- Normalized ThT fluorescence (Aβ42; time 5.833 h): 1034.411
- Normalized ThT fluorescence (Aβ42; time 6.000 h): 1074.727
- Normalized ThT fluorescence (Aβ42; time 6.167 h): 1044.333
- Normalized ThT fluorescence (Aβ42; time 6.333 h): 1117.377
- Normalized ThT fluorescence (Aβ42; time 6.500 h): 1116.291
- Normalized ThT fluorescence (Aβ42; time 6.667 h): 1054.239
- Normalized ThT fluorescence (Aβ42; time 6.833 h): 1138.465
- Normalized ThT fluorescence (Aβ42; time 7.000 h): 1115.829
- Normalized ThT fluorescence (Aβ42; time 7.167 h): 1058.156
- Normalized ThT fluorescence (Aβ42; time 7.333 h): 1094.730
- Normalized ThT fluorescence (Aβ42; time 7.500 h): 1092.412
- Normalized ThT fluorescence (Aβ42; time 7.667 h): 1062.031
- Normalized ThT fluorescence (Aβ42; time 7.833 h): 1136.103
- Normalized ThT fluorescence (Aβ42; time 8.000 h): 1128.627
- Normalized ThT fluorescence (Aβ42; time 8.167 h): 1116.746
- Normalized ThT fluorescence (Aβ42; time 8.333 h): 1080.689
- Normalized ThT fluorescence (Aβ42; time 8.500 h): 1146.007
- Normalized ThT fluorescence (Aβ42; time 8.667 h): 1085.963
- Normalized ThT fluorescence (Aβ42; time 8.833 h): 1146.093
- Normalized ThT fluorescence (Aβ42; time 9.000 h): 1168.158
- Normalized ThT fluorescence (Aβ42; time 9.167 h): 1195.194
- Normalized ThT fluorescence (Aβ42; time 9.333 h): 1188.939
- Normalized ThT fluorescence (Aβ42; time 9.500 h): 1216.176
- Normalized ThT fluorescence (Aβ42; time 9.667 h): 1201.344
- Normalized ThT fluorescence (Aβ42; time 9.833 h): 1137.291
- Normalized ThT fluorescence (Aβ42; time 10.000 h): 1184.898
- Normalized ThT fluorescence (Aβ42; time 10.167 h): 1153.959
- Normalized ThT fluorescence (Aβ42; time 10.333 h): 1205.518
- Normalized ThT fluorescence (Aβ42; time 10.500 h): 1174.187
- Normalized ThT fluorescence (Aβ42; time 10.667 h): 1185.205
- Normalized ThT fluorescence (Aβ42; time 10.833 h): 1189.623
- Normalized ThT fluorescence (Aβ42; time 11.000 h): 1150.543
- Normalized ThT fluorescence (Aβ42; time 11.167 h): 1169.609
- Normalized ThT fluorescence (Aβ42; time 11.333 h): 1161.417
- Normalized ThT fluorescence (Aβ42; time 11.500 h): 1208.267
- Normalized ThT fluorescence (Aβ42; time 11.667 h): 1187.121
- Normalized ThT fluorescence (Aβ42; time 11.833 h): 1199.506
- Normalized ThT fluorescence (Aβ42; time 12.000 h): 1229.396
- Normalized ThT fluorescence (Aβ42; time 12.167 h): 1189.375
- Normalized ThT fluorescence (Aβ42; time 12.333 h): 1145.079
- Normalized ThT fluorescence (Aβ42; time 12.500 h): 1220.539
- Normalized ThT fluorescence (Aβ42; time 12.667 h): 1203.612
- Normalized ThT fluorescence (Aβ42; time 12.833 h): 1183.933
- Normalized ThT fluorescence (Aβ42; time 13.167 h): 1197.309
- Normalized ThT fluorescence (Aβ42; time 13.333 h): 1166.138
- Normalized ThT fluorescence (Aβ42; time 13.500 h): 1200.493
- Normalized ThT fluorescence (Aβ42; time 13.667 h): 1198.718
- Normalized ThT fluorescence (Aβ42; time 13.833 h): 1242.576
- Normalized ThT fluorescence (Aβ42; time 14.000 h): 1232.657
- Normalized ThT fluorescence (Aβ42; time 14.167 h): 1186.307
- Normalized ThT fluorescence (Aβ42; time 14.333 h): 1161.142
- Normalized ThT fluorescence (Aβ42; time 14.500 h): 1146.151
- Normalized ThT fluorescence (Aβ42; time 14.667 h): 1198.390
- Normalized ThT fluorescence (Aβ42; time 14.833 h): 1196.409
- Normalized ThT fluorescence (Aβ42; time 15.000 h): 1194.696
- Normalized ThT fluorescence (Aβ42; time […]): 1190.377
- viability at 10 µM ([2]; HEK293, hIAPP (10 µM) : molecule 1:1, HEK-293 cells, normalized XTT data): 55.2%
- viability at 50 µM ([2]; HEK293, hIAPP (10 µM) : molecule 1:5, HEK-293 cells, normalized XTT data): 57.7%
- viability at 200 µM ([2]; HEK293, hIAPP (10 µM) : molecule 1:20, HEK-293 cells, normalized XTT data): 58.5%
- viability at 2 µM ([2]; HEK293, hIAPP (10 µM) : molecule 5:1, HEK-293 cells, normalized XTT data): 55.6%
- EC50 ([2]; HEK293, reduction of cytotoxicity of pre-formed hIAPP fibrils 10 µM, HEK-293): 10 µM
